According to patent publication EP4640678A1, “NOVEL OXO-PYRIDINE COMPOUND, PREPARATION METHOD THEREFOR, AND USE THEREOF” (Chengdu Shibeikang Biomedical Technology Co., Ltd., priority 2022, dated 2024):

Key:
[1] = Effect of continuous in-vivo administration on general condition and food intake of rats; conditions: for Food intake (g, mean±SD) / food intake compared with the blank group: 500 mg/kg PO once a day for 14 days, within 24 hours after the last administration
Text: Each group had 10 rats, equally distributed by gender. The rats received drug administrations via oral gavage once a day for 14 consecutive days, following the administration regimen outlined in the table below. The blank group was given an equal volume of a vehicle. […] Table 4 Continuous administration regimen

[2] = test system: human plasma; assay: determination of in-vitro anticoagulant effect in human plasma (APTT); assay type: biochemical; conditions: for APTT prolongation rate (%): healthy human plasma, 37°C for 3 min
Procedure: After centrifugation, the plasma sample was pipetted and frozen (-80°C) for later use.
A proper amount of a compound was weighed and prepared into a 10-100 mM stock solution using 100% of DMSO (the specific concentration of the stock solution was determined based on the properties of the compound); and then working solutions with various concentrations (specifically: 1 µM, 3 µM and 10 µM, respectively) were prepared from the stock solution using the healthy human plasma as a solution and thoroughly mixed. After incubation at 37°C for 3 min, the sample was placed on an instrument (model: CS-2000I) to determine APTT.
GraphPad Prism software was used for analysis to calculate the APTT prolongation rate at each concentration.

[3] = biological target: human FXla (Homo sapiens, UniProt P03951); assay: Activity assay of coagulation factor FXla inhibitor (S-2366 substrate, OD405nm); assay type: biochemical; conditions: 5 concentrations 200 nM to 0.32 nM, 0.8 nM (2X) human FXla working solution
Text: X: log value of compound concentration; Y: inhibition rate (%).

Sequence of human FXla (P03951 388-625 limits assumed): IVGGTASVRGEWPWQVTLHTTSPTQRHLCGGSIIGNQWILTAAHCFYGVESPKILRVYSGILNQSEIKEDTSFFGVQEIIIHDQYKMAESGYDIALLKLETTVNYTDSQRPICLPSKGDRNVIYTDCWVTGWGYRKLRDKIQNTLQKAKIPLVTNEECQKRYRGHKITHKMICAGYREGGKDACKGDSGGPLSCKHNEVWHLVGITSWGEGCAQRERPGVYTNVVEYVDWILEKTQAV
Sequence of human FXla (P03951 19-387 partner limits assumed): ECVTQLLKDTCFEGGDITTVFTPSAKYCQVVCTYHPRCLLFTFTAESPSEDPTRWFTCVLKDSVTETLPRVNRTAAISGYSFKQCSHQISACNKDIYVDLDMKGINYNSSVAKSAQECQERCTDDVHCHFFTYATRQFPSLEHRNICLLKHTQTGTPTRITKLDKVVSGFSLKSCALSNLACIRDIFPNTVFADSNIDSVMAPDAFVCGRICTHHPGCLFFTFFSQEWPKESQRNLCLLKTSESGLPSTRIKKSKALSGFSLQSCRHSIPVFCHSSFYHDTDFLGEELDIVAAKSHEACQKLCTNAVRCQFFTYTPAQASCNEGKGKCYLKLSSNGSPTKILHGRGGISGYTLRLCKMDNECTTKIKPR

IC50 [3] [nM] | Compound | Food intake (g, mean±SD) [1] [g] | general condition of the rats ([1]; SD rats, 500 mg/kg PO once a day for 14 consecutive days) | food intake compared with the blank group ([1]; SD rats) | APTT prolongation rate (%) ([2]; 3 µM) | APTT prolongation rate (%) ([2]; 10 µM) | EC150 ([2]; estimated from the APTT test results in human plasma) | APTT prolongation rate (%) ([2]; 1 µM)
– | CC[C@@H](C(=O)Nc1ccc(C(N)=O)c(F)c1)n1cc(OC)c(-c2cc(Cl)ccc2-n2cc(C(F)(F)F)nn2)cc1=O [Comparative example 1, (S)-4-(2-(4-(5-chloro-2-(4-(trifluoromethyl)-1H-1,2,3-triazol-1-yl)phenyl)-5-methoxy-2-oxopyridin-1(2H)-yl)butanamido)-2-fluorobenzamide, reference compound] | 24.98 ± 0.92 | piloerection and hypoactivity were found in 1/3 or more of the rats | significantly reduced food intake | – | – | – | –
7.53 | CC[C@@H](C(=O)Nc1ccc(C(N)=O)c(Cl)c1)n1cc(OC)c(-c2cc(Cl)ccc2-n2cc(C(F)(F)F)nn2)cc1=O [Compound 1, (S)-2-chloro-4-(2-(4-(5-chloro-2-(4-(trifluoromethyl)-1H-1,2,3-triazol-1-yl)phenyl)-5-methoxy-2-oxopyridin-1(2H)-yl)butanamido)benzamide] | – | – | – | 65.8 | 136.5 | less than 1 µM | –
– | CC[C@@H](C(=O)Nc1ccc(C(=O)NC)c(Cl)c1)n1cc(OC)c(-c2cc(Cl)ccc2-n2cc(C(F)(F)F)nn2)cc1=O [Compound 3, (S)-2-chloro-4-(2-(4-(5-chloro-2-(4-(trifluoromethyl)-1H-1,2,3-triazol-1-yl)phenyl)-5-methoxy-2-oxopyridin-1(2H)-yl)butanamido)-N-methylbenzamide] | – | – | – | 66.5 | 92.0 | – | 48.2
– | CC[C@@H](C(=O)Nc1ccc(C(=O)OC)c(Cl)c1)n1cc(OC)c(-c2cc(Cl)ccc2-n2cc(C(F)(F)F)nn2)cc1=O [Compound 4, Methyl (S)-2-chloro-4-(2-(4-(5-chloro-2-(4-(trifluoromethyl)-1H-1,2,3-triazol-1-yl)phenyl)-5-methoxy-2-oxopyridin-1(2H)-yl)butanamido)benzoate] | – | – | – | 54.3 | 102.6 | – | 31.5
– | CC[C@@H](C(=O)Nc1ccc(C(N)=O)c(C(F)(F)F)c1)n1cc(OC)c(-c2cc(Cl)ccc2-n2cc(C(F)(F)F)nn2)cc1=O [Compound 7, (S)-4-(2-(4-(5-chloro-2-(4-(trifluoromethyl)-1H-1,2,3-triazol-1-yl)phenyl)-5-methoxy-2-oxopyridin-1(2H)-yl)butanamido)-2-(trifluoromethyl)benzamide] | – | – | – | 52.4 | 73.4 | – | 37.9
– | CC[C@@H](C(=O)Nc1ccc(C(N)=O)c(C(N)=O)c1)n1cc(OC)c(-c2cc(Cl)ccc2-n2cc(C(F)(F)F)nn2)cc1=O [Compound 8, (S)-4-(2-(4-(5-chloro-2-(4-(trifluoromethyl)-1H-1,2,3-triazol-1-yl)phenyl)-5-methoxy-2-oxopyridin-1(2H)-yl)butanamido)phthalamide] | – | – | – | 64.5 | 93.8 | – | 34.7
– | CC[C@@H](C(=O)Nc1ccc(C(N)=O)c(Cl)c1)n1cc(OC)c(-c2cc(Cl)ccc2-n2cc(Cl)nn2)cc1=O [Compound 10, (S)-2-chloro-4-(2-(4-(5-chloro-2-(4-chloro-1H-1,2,3-triazol-1-yl)phenyl)-5-methoxy-2-oxopyridin-1(2H)-yl)butanamido)benzamide] | – | – | – | 56.0 | 98.9 | – | 38.6
– | CC[C@@H](C(=O)Nc1ccc(C(N)=O)c(C(F)(F)F)c1)n1cc(OC)c(-c2cc(Cl)ccc2-n2cc(Cl)nn2)cc1=O [Compound 11, (S)-4-(2-(4-(5-chloro-2-(4-chloro-1H-1,2,3-triazol-1-yl)phenyl)-5-methoxy-2-oxopyridin-1(2H)-yl)butanamido)-2-(trifluoromethyl)benzamide] | – | – | – | 26.9 | 42.0 | – | 18.7
– | CC[C@@H](C(=O)Nc1ccc(C(N)=O)c(F)c1F)n1cc(OC)c(-c2cc(Cl)ccc2-n2cc(C(F)(F)F)nn2)cc1=O [Compound 12, (S)-4-(2-(4-(5-chloro-2-(4-(trifluoromethyl)-1H-1,2,3-triazol-1-yl)phenyl)-5-methoxy-2-oxopyridin-1(2H)-yl)butanamido)-2,3-difluorobenzamide] | – | – | – | 33.5 | 81.1 | – | 23.2
– | CC[C@@H](C(=O)Nc1c(Cl)cc(C(N)=O)cc1Cl)n1cc(OC)c(-c2cc(Cl)ccc2-n2cc(C(F)(F)F)nn2)cc1=O [Compound 15, (S)-3,5-dichloro-4-(2-(4-(5-chloro-2-(4-(trifluoromethyl)-1H-1,2,3-triazol-1-yl)phenyl)-5-methoxy-2-oxopyridin-1(2H)-yl)butanamido)benzamide] | – | – | – | 30.0 | 51.1 | – | 24.2
– | CC[C@@H](C(=O)Nc1ccc(C(N)=O)cc1Cl)n1cc(OC)c(-c2cc(Cl)ccc2-n2cc(C(F)(F)F)nn2)cc1=O [Compound 16, (S)-3-chloro-4-(2-(4-(5-chloro-2-(4-(trifluoromethyl)-1H-1,2,3-triazol-1-yl)phenyl)-5-methoxy-2-oxopyridin-1(2H)-yl)butanamido)-benzamide] | – | – | – | 11.7 | 26.8 | – | 7.0
– | CC[C@@H](C(=O)Nc1ccc(C(=O)NC)cc1F)n1cc(OC)c(-c2cc(Cl)ccc2-n2cc(C(F)(F)F)nn2)cc1=O [Compound 19, (S)-4-(2-(4-(5-chloro-2-(4-(trifluoromethyl)-1H-1,2,3-triazol-1-yl)phenyl)-5-methoxy-2-oxopyridin-1(2H)-yl)butanamido)-3-fluoro-N-methylbenzamide] | – | – | – | 44.0 | 77.1 | – | 24.2
– | CC[C@@H](C(=O)Nc1cc(F)c(C(=O)NC)c(F)c1)n1cc(OC)c(-c2cc(Cl)ccc2-n2cc(C(F)(F)F)nn2)cc1=O [Compound 20, (S)-4-(2-(4-(5-chloro-2-(4-(trifluoromethyl)-1H-1,2,3-triazol-1-yl)phenyl)-5-methoxy-2-oxopyridin-1(2H)-yl)butanamido)-2,6-difluoro-N-methylbenzamide] | – | – | – | 49.2 | 98.6 | – | 19.2
– | [2H]C([2H])([2H])Oc1cn([C@@H](CC)C(=O)Nc2ccc(C(N)=O)c(F)c2)c(=O)cc1-c1cc(Cl)ccc1-n1cc(C(F)(F)F)nn1 [Compound 21, (S)-4-(2-(4-(5-chloro-2-(4-(trifluoromethyl)-1H-1,2,3-triazol-1-yl)phenyl)-5-(methoxy-d3)-2-oxopyridin-1(2H)-yl)butanamido)-2-fluorobenzamide] | 27.08 ± 1.23 | – | essentially the same food intake as the blank group | – | – | – | –
– | [2H]C([2H])([2H])Oc1cn([C@@H](CC)C(=O)Nc2ccc(C(N)=O)cc2F)c(=O)cc1-c1cc(Cl)ccc1-n1cc(C(F)(F)F)nn1 [Compound 23, (S)-4-(2-(4-(5-chloro-2-(4-(trifluoromethyl)-1H-1,2,3-triazol-1-yl)phenyl)-5-(methoxy-d3)-2-oxopyridin-1(2H)-yl)butanamide)-3-fluorobenzamide] | – | – | – | 81.2 | 168.0 | – | 48.8
– | [2H]C([2H])([2H])Oc1cn([C@@H](CC)C(=O)Nc2ccc(C(=O)NC)cc2F)c(=O)cc1-c1cc(Cl)ccc1-n1cc(C(F)(F)F)nn1 [Compound 24, (S)-4-(2-(4-(5-chloro-2-(4-(trifluoromethyl)-1H-1,2,3-triazol-1-yl)phenyl)-5-(methoxy-d3)-2-oxopyridin-1(2H)-yl)butanamido)-3-fluoro-N-methylbenzamide] | – | – | – | 73.2 | 132.5 | – | 35.1
– | [2H]C([2H])([2H])NC(=O)c1ccc(NC(=O)[C@@H](n2cc(OC([2H])([2H])[2H])c(-c3cc(Cl)ccc3-n3cc(C(F)(F)F)nn3)cc2=O)C([2H])([2H])C([2H])([2H])[2H])cc1F [Compound 30, (S)-4-(2-(4-(5-chloro-2-(4-(trifluoromethyl)-1H-1,2,3-triazol-1-yl)phenyl)-5-(methoxy-d3)-2-oxopyridin-1(2H)-yl)butanamido-3,3,4,4,4-d5)-2-fluoro-N-(methyl-d3)benzamide] | – | – | – | 79.0 | 138.4 | – | 48.1
– | (S)-4-(2-(4-(5-chloro-2-(4-(trifluoromethyl)-1H-1,2,3-triazol-1-yl)phenyl)-5-methoxy-2-oxopyridin-1(2H)-yl)butanamido)-3,6-difluorobenzamide [Compound 14] | – | – | – | 9.1 | 18.5 | – | 0.9
